The values that follow come from patent US11606956B2, “4-chloroindole-3-acetic acid for controlling unwanted plants” (PREMIER TECH TECHNOLOGIES LTÉE, priority 2014, dated 2023).

For one data set, the system named is barley. The conditions noted are these: cited from earlier work; for quantity sufficient to affect the growth by 50%: barley (monocotyledonous), aqueous solution containing 10% ethanol.
The subject of the next data set is peas and mustard. Conditions: aqueous solution containing 10% ethanol; cited from earlier work.
The test system of data set [1] is dicotyledonous weed species. Kind of data set: Weed species controlled with targeted applications (Example 10). The format is in vivo. The conditions noted are these: 0.022 to 0.036 g/plant; after 21 to 40 days depending on the species; weed species of Table 4. The method, then: The experiments were conducted according to completely randomized design and randomized complete block design with targeted applications for weed control on various terrain covered in turf.
Treatment: 4Cl-IAA without co-ingredient with doses varying from 0.022 to 0.036 g/plant
Variables: Observation of a damage rating above 4 and a mortality percentage above 80%, assessed after a period of 21 to 40 days, depending on the species.

The subject of data set [2] is dandelion. Kind of data set: Dandelion control, targeted applications on turfed terrain (damage rating 0-5, mortality %). The data set is classed as in vivo, Taraxacum officinale. Conditions: for control efficacy (damage rating and mortality percentage): 0.014 to 0.036 g/plant. The method, then: (§1) Control: eradication of weeds assessed, after a certain length of time, based on a visible damage rating of the foliage, varying from 0 to 5, and/or the mortality percentage observed on the treated plants.
The experiment was conducted using a randomized complete block design. Four repetitions were done for each treatment.
Dependent variable: mean damage rating (from 0 to 5) with the variation coefficient assessed after 42 days.
Dependent variable: Mean mortality percentage with the variation coefficient assessed after 42 days.
Treatment: solution of 4Cl-IAA applied at a dose of 0.03 g/plant containing 10% urea as co-ingredient
Dependent variable: mean damage rating (from 0 to 5)
The experiment was conducted using a randomized complete block design. Four repetitions were done for each treatment, except for 4Cl-IAA methyl ester, where three repetitions were done.
Treatment: the applied quantities varied from 0.014 to 0.036 g/plant, except for IAA, where the quantity was higher (0.2 g/plant) in light of the information found in the literature on the effect of the latter.
Dependent variable: mean damage rating (from 0 to 5) and mean mortality percentage assessed between 28 and 35 days after application

Data set [3] has as its system turf. The data set can be described thus: Selectivity: turf impact rating (0-3), targeted applications. The data set is classed as in vivo. Conditions: doses below 0.1 g/plant; without co-ingredient; after 7 days; rating 0 to 3. The method, then: Selectivity of the effect: absence of a pronounced effect of the herbicide on the desirable plants assessed based on an impact rating on the latter, varying from 0 to 3 in the case of turf. [table] The experiment was conducted using a randomized complete block design. Five repetitions were done for each treatment. Treatment: 4Cl-IAA without co-ingredient Dependent variable: Impact rating (from 0 to 3) on the turf assessed after 7 days.

The test system of another data set is plantain. The data set can be described thus: Plantain control, second targeted application. The data set is classed as in vivo, Plantago sp. Conditions: 0.015, 0.023 and 0.030 g/plant; without co-ingredient. The method, then: The experiment was conducted using randomized complete block design. Four repetitions were done for each treatment. Treatment: 4Cl-IAA without co-ingredient at three doses, i.e., 0.015, 0.023 and 0.030 g/plant Dependent variable: mean mortality percentage

Data set [4] is described as follows: Storage stability of finished product. The conditions noted are these: finished product incorporating the molecule; room temperature. The format is physicochemical.
Data set [5] concerns dandelion. The data set can be described thus: Dandelion control, spreading applications (damage rating 0-5). The conditions noted are these: 100 mL/m^2, after 50 days. The format is in vivo, Taraxacum officinale. The procedure: as §1
(§2) The experiment was conducted using a randomized complete block design. Three repetitions were done for each treatment with surface areas of 0.5 m^2.
(§3) Treatment: 4Cl-IAA without co-ingredient with an application rate of 100 mL/m^2
(§4) Dependent variable: mean damage rating (from 0 to 5) of the dandelion and mean impact rating (from 0 to 3) on the turf assessed after 50 days

For data set [6], the system named is turf. The data set can be described thus: Selectivity: turf impact rating (0-3), spreading applications. The data set is classed as in vivo. The conditions noted are these: for Turf impact rating: 100 mL/m^2, after 50 days. The method, then:
Selectivity of the effect: absence of a pronounced effect of the herbicide on the desirable plants assessed based on an impact rating on the latter, varying from 0 to 3 in the case of turf.
as §2, §3, §4
The experiment was conducted using a completely randomized design with surface areas of 2 m^2 per treatment.
Dependent variable: impact rating (from 0 to 3) on the turf assessed after 4 and 90 days

A short description of data set [7]: Peroxide deterioration tests. The format is physicochemical.
The mark [8] stands for this setting: 28 to 35 days after application.
Setting [9] is: 0.2 g/plant, 28 to 35 days after application.

On to `O=C(O)COc1ccc(Cl)cc1Cl` [2,4-D, 2,4-dichlorophenoxyacetic acid, reference compound], for which the “quantity sufficient to affect the growth by 50%” value with barley is given as 0.5 g/m^2.

With `O=C(O)Cc1c[nH]c2cccc(Cl)c12` [4Cl-IAA, 4-chloroindole-3-acetic acid], the “impact on the growth of dicotyledonous plants compared to 2,4-D” value with peas and mustard is reported as “about 4 times lower”. In addition, the damage rating result in [1] is recorded as “above 4”; in the data set on dandelion [2] (after 3 days, solution containing 0.45% of 4Cl-IAA, rating 0 to 5) it was “only a small effect”. The mortality percentage result in data set [1] is “above 80%”. In the data set with dandelion [2] (setting [8]), the “control efficacy (damage rating and mortality percentage)” value is on record as “control efficacies close to those observed with a 2,4-D-based herbicide”. The “damage rating for dandelion control” value with dandelion [2] (after 35 days, solution containing 0.45% of 4Cl-IAA, rating 0 to 5) is recorded as 5. The “damage rating on dandelions” value in the data set on dandelion [2] (dose 0.0075 g per plant, without vs with chelating agent (HEDTA or EDDS), rating 0 to 5) is on record as 3.1. In addition, the “decrease of the mortality percentage” value with dandelion [2] (doses below 0.01 g/plant, without co-ingredient, after 42 days) is on record as “about 50%”. The turf impact entry in the data set on turf [3] is “zero to acceptable”. In addition, in the data set with plantain, the “control efficacy (mean mortality percentage), effect of a second application” value is listed as “pronounced improvement in the control efficacy”. For the same compound, the stability in storage result in data set [4] is “stability over two years”. For the same compound, the Dandelion damage rating in the data set on dandelion [5] (dose 0.3 g/m^2) amounted to 3.0; in the data set on dandelion [5] (dose 0.6 g/m^2), 4.1; in the data set with dandelion [5] (dose 1.0 g/m^2) it was 3.8; with dandelion [5] (dose 1.2 g/m^2) it was 3.9. Also, the “impact rating on the turf” value with turf [6] (dose 0.25 g/m^2, after 4 days) is 0; with turf [6] (dose 0.25 g/m^2, after 90 days), 0; with turf [6] (dose 0.6 g/m^2, after 4 days), 1; in the data set with turf [6] (dose 0.6 g/m^2, after 90 days), 0; in the data set with turf [6] (dose 0.9 g/m^2, after 4 days), 1; in the data set on turf [6] (dose 0.9 g/m^2, after 90 days) it was 0. For the same compound, the “impact rating on the turf” value turned out to be 2 with turf [6] (dose 1.0 g/m^2, after 4 days); 0 with turf [6] (dose 1.0 g/m^2, after 90 days); 3 in the data set on turf [6] (dose 1.2 g/m^2, after 4 days); 0 with turf [6] (dose 1.2 g/m^2, after 90 days). The Turf impact rating in the data set on turf [6] (dose 0.3 g/m^2) is 0.7; in the data set on turf [6] (dose 0.6 g/m^2) it was 1.7; with turf [6] (dose 1.0 g/m^2), 1.7; with turf [6] (dose 1.2 g/m^2) it was 2.0. In addition, the “quantity sufficient to affect the growth by 50%” value in the data set with barley is listed as 0.17 g/m^2. The “sensitivity of the monocotyledonous plant compared with 2,4-D” value in the data set on barley (barley) is reported as “three times higher”. In [7], the “stability in peroxide deterioration tests” value is “a certain stability”.

With `O=C(O)Cc1c[nH]c2ccccc12` [IAA, indole-3-acetic acid], in the data set on dandelion [2] (setting [9]), the mean damage rating result is recorded as “interesting damage rating” and the mean mortality percentage result is given as “low mortality percentage”.

As for `COC(=O)Cc1c[nH]c2cccc(Cl)c12` [methyl ester of 4Cl-IAA], the “control efficacy (damage rating and mortality percentage)” value with dandelion [2] (setting [8]) was “control efficacies close to those observed with a 2,4-D-based herbicide”.
